Where a name gives a salt, the structure may show the parent alone. Read-outs that look alike come from different tables or passages of the source.
System: calvaria
Experiment: Inhibition of bone resorption (45Ca release from calvaria stimulated with hPTH (1-34), method of Raisz)
Type: cell-based, new born ICR mouse
Conditions: read-out: IC50 (inhibition of bone resorption)
[1] = Mus musculus, 72 h, 45Ca release, 50 nM hPTH (1-34), 3 days incubation, test concentrations 0.04, 0.2 and 1 μM, mean of 4 pairs

Source text: The determination of the inhibitory action on the bone resorption was basically in accordance with the method of Raisz [J. Clin. Invest. vol.
A new born ICR mouse (one or two days old) was intraperitoneally administered with 1.5μ Ci ^45 Ca (isotope of calcium as CaCl2 solution) and calvaria was aseptically removed the next day. The calvaria was split into two along the central suture line, and one of them was used as a control and the other was used as a test compound. The calvaria was preincubated at 37° C. for 2 days in BGJb medium [0.5 ml, Fitton-Jackson modification, GIBCO Laboratories, USA, containing bovine serum albumin 1 mg/ml] added with a test compound to the concentrations of 0.04 μM, 0.2 μM and 1 μM and then in the above-mentioned medium containing 50 nM hPTH (1-34) for further 3 days. After the incubation, the ^45 Ca radioactivity in the medium and the bone was determined, and the proportion (%) of ^45 Ca released from the bone into the medium was calculated by the following formula.
Using the bone obtained from the same mouse and treated in the same manner without adding a test compound, as a control, the proportion (%) relative to the control group was determined according to the following formula.

SMILES | IC50 [1] [nM] | further results
COc1ccc(CN2N=C(c3ccc(Cl)cc3)c3ccccc3-n3c(C)nnc32)cc1 [Example 77, 6-(4-Chlorophenyl)-4-(4-methoxybenzyl)-1-methyl-4H-2,3,4,5,10b-pentaazabenz[e]azulene] | – | IC50 (45Ca release, 50 nM hPTH (1-34), 3 days incubation, test concentrations 0.04, 0.2 and 1 μM, mean of 4 pairs): 120 nM
Cc1nc(CN2N=C(c3ccc(Cl)cc3)c3ccccc3-n3c(C)nnc32)cs1 [Example 100, 6-(4-Chlorophenyl)-4-(2-methyl-1,3-thiazol-4-ylmethyl)-1-methyl-4H-2,3,4,5,10b-pentaazabenz[e]azulene] | 710 | –
Cc1nnc2n1-c1ccccc1C(c1ccc(Cl)cc1)=NN2Cc1ccc(F)cc1 [Example 59, 6-(4-Chlorophenyl)-4-(4-fluorobenzyl)-1-methyl-4H-2,3,4,5,10b-pentaazabenz[e]azulene] | – | IC50 (Mus musculus, 72 h): 680 nM
Cc1nnc2n1-c1ccccc1C(c1ccc(Cl)cc1)=NN2Cc1cc(F)ccc1F [Example 61, 6-(4-Chlorophenyl)-4-(2,5-difluorobenzyl)-1-methyl-4H-2,3,4,5,10b-pentaazabenz[e]azulene] | 810 | –
Cc1nnc2n1-c1ccccc1C(c1ccccc1)=NN2Cc1ccncc1 [Example 129, 1-Methyl-6-phenyl-4-(pyridin-4-ylmethyl)-4H-2,3,4,5,10b-pentaazabenz[e]azulene] | 780 | –
COc1ccc(CN2N=C(c3ccc(Cl)cc3)c3ccccc3-n3c(C)nnc32)cc1Cl [Example 85, 4-(3-Chloro-4-methoxybenzyl)-6-(4-chlorophenyl)-1-methyl-4H-2,3,4,5,10b-pentaazabenz[e]azulene] | 860 | –
COc1ccc(CN2N=C(c3ccc(Cl)cc3)c3ccccc3-n3c(C)nnc32)cc1OC [Example 41, 6-(4-Chlorophenyl)-4-(3,4-dimethoxybenzyl)-1-methyl-4H-2,3,4,5,10b-pentaazabenz[e]azulene] | 800 | –
CCOc1ccc(CN2N=C(c3ccc(Cl)cc3)c3ccccc3-n3c(C)nnc32)cc1 [Example 186, 6-(4-Chlorophenyl)-4-(4-ethoxybenzyl)-1-methyl-4H-2,3,4,5,10b-pentaazabenz[e]azulene] | 790 | –
Cc1nnc2n1-c1ccc(Cl)cc1C(c1ccccc1)=NN2Cc1ccncc1 [Example 126, 8-Chloro-1-methyl-6-phenyl-4-(pyridin-4-ylmethyl)-4H-2,3,4,5,10b-pentaazabenz[e]azulene] | – | IC50 (Mus musculus, 72 h): 530 nM
CCc1cc2c(s1)-n1c(C)nnc1N(Cc1cccnc1)N=C2c1ccccc1 [Example 147, 2-Ethyl-9-methyl-4-phenyl-6-(pyridin-3-ylmethyl)-6H-5,6,7,8,9a-pentaazathien[2,3-e]azulene] | 810 | –
Cc1nnc2n1-c1ccccc1C(c1ccc(Cl)cc1)=NN2Cc1cc(F)cc(F)c1 [Example 62, 6-(4-Chlorophenyl)-4-(3,5-difluorobenzyl)-1-methyl-4H-2,3,4,5,10b-pentaazbenz[e]azulene] | 710 | –
COc1ccc(CN2N=C(c3ccc(Cl)cc3)c3ccccc3-n3c(C)nnc32)cc1[N+](=O)[O-] [Example 84, 6-(4-Chlorophenyl)-4-(4-methoxy-3-nitrobenzyl)-1-methyl-4H-2,3,4,5,10b-pentaazabenz[e]azulene] | 670 | –
Cc1nnc2n1-c1ccccc1C(c1ccc(Cl)cc1)=NN2Cc1ccc(N(C)C)cc1 [Example 191, 6-(4-Chlorophenyl)-4-(4-dimethylaminobenzyl)-1-methyl-4H-2,3,4,5,10b-pentaazabenz[e]azulene hydrochloride] | 740 | –
Cc1nnc2n1-c1ccccc1C(c1ccc(Cl)cc1)=NN2Cc1ccccc1F [Example 57, 6-(4-Chlorophenyl)-4-(2-fluorobenzyl)-1-methyl-4H-2,3,4,5,10b-pentaazabenz[e]azulene] | 720 | –
Cc1nnc2n1-c1ccccc1C(c1ccc(Cl)cc1)=NN2Cc1ccc([N+](=O)[O-])cc1 [Example 122, 6-(4-Chlorophenyl)-1-methyl-4-(4-nitrobenzyl)-4H-2,3,4,5,10b-pentaazabenz[e]azulene] | 720 | –
Cc1nnc2n1-c1ccccc1C(c1ccc(Cl)cc1)=NN2Cc1ccc(F)c(F)c1 [Example 63, 6-(4-Chlorophenyl)-4-(3,4-difluorobenzyl)-1-methyl-4H-2,3,4,5,10b-pentaazabenz[e]azulene] | 740 | –

Second part, led by results:

IC50 [1] [nM] | SMILES | further results
180 | COc1ccc(C2=NN(Cc3cccnc3)c3nnc(C)n3-c3sc(C)c(C)c32)cc1 [Example 149, 4-(4-Methoxyphenyl)-2,3,9-trimethyl-6-(pyridin-3-ylmethyl)-6H-5,6,7,8,9a-pentaazathien[2,3-e]azulene] | –
220 | Cc1nnc2n1-c1ccccc1C(c1ccc(Cl)cc1)=NN2Cc1ccncc1 [Example 120, 6(4-Chlorophenyl)-1-methyl-4-(pyridin-4-ylmethyl)-4H-2,3,4,5,10b-pentaazabenz[e]azulene] | –
590 | Cc1cccc(CN2N=C(c3ccc(Cl)cc3)c3ccccc3-n3c(C)nnc32)c1 [Example 88, 6-(4-Chlorophenyl)-1-methyl-4-(3-methylbenzyl)-4H-2,3,4,5,10b-pentaazabenz[e]azulene] | –
430 | Cc1nnc2n1-c1ccccc1C(c1ccc(Cl)cc1)=NN2Cc1cccc(F)c1 [Example 58, 6-(4-Chlorophenyl)-4-(3-fluorobenzyl)-1-methyl-4H-2,3,4,5,10b-pentaazabenz[e]azulene] | –
410 | Cc1ccc(C2=NN(Cc3ccncc3)c3nnc(C)n3-c3ccccc32)cc1 [Example 135, 1-Methyl-6-(4-methylphenyl)-4-(pyridin-4-ylmethyl)-4H-2,3,4,5,10b-pentaazabenz[e]azulene] | –
100 | Cc1sc2c(c1C)C(c1ccccc1)=NN(Cc1ccncc1)c1nnc(C)n1-2 [Example 146, 2,3,9-Trimethyl-4-phenyl-6-(pyridin-4-ylmethyl)-6H-5,6,7,8,9a-pentaazathien[2,3-e]azulene] | –
330 | Cc1nnc2n1-c1ccccc1C(c1ccc(Cl)cc1)=NN2Cc1cccc([N+](=O)[O-])c1 [Example 68, 6-(4-Chlorophenyl)-1-methyl-4-(3-nitrobenzyl)-4H-2,3,4,5,10b-pentaazabenz[e]azulene] | –
590 | Cc1nnc2n1-c1ccccc1C(c1ccc(Cl)cc1)=NN2Cc1ccc2c(c1)OCO2 [Example 81, 6-(4-Chlorophenyl)-1-methyl-4-(3,4-methylenedioxybenzyl)-4H-2,3,4,5,10b-pentaazabenz[e]azulene] | –
570 | COc1cc(CN2N=C(c3ccc(Cl)cc3)c3ccccc3-n3c(C)nnc32)cc(OC)c1OC [Example 79, 6-(4-Chlorophenyl)-1-methyl-4-(3,4,5-trimethoxybenzyl)-4H-2,3,4,5,10b-pentaazabenz[e]azulene] | –
140 | Cc1nnc2n1-c1ccccc1C(c1ccc(Cl)cc1)=NN2Cc1ccc(S(C)(=O)=O)cc1 [Example 121, 6-(4-Chlorophenyl)-1-methyl-4-(4-methylsulfonylbenzyl)-4H-2,3,4,5,10b-pentaazabenz[e]azulene] | –
340 | Cc1cc2c(s1)-n1c(C)nnc1N(Cc1cccnc1)N=C2c1ccccc1 [Example 143, 2,9-Dimethyl-4-phenyl-6-(pyridin-3-ylmethyl)-6H-5,6,7,8,9a-pentaazathien[2,3-e]azulene] | –
420 | COc1ccc(CN2N=C(c3ccc(C)cc3)c3ccccc3-n3c(C)nnc32)cc1 [Example 46, 4-(4-Methoxybenzyl)-1-methyl-6-(4-methylphenyl)-4H-2,3,4,5,10b-pentaazabenz[e]azulene] | –
560 | Cc1nnc2n1-c1ccccc1C(c1ccc(Cl)cc1)=NN2Cc1ccccc1 [Example 94, 4-Benzyl-6-(4-chlorophenyl)-1-methyl-4H-2,3,4,5,10b-pentaazabenz[e]azulene] | –
120 | Cc1sc2c(c1C)C(c1ccccc1)=NN(Cc1cccnc1)c1nnc(C)n1-2 [Example 145, 2,3,9-Trimethyl-4-phenyl-6-(pyridin-3-ylmethyl)-6H-5,6,7,8,9a-pentaazathien[2,3-e]azulene] | –
29 | COc1ccc(C2=NN(Cc3ccncc3)c3nnc(C)n3-c3sc(C)c(C)c32)cc1 [Example 150, 4-(4-Methoxyphenyl)-2,3,9-trimethyl-6-(pyridin-4-ylmethyl)-6H-5,6,7,8,9a-pentaazathien[2,3-e]azulene] | –
560 | Cc1nnc2n1-c1ccccc1C(c1ccc(Cl)cc1)=NN2Cc1ccc(O)cc1 [Example 184, 6-(4-Chlorophenyl)-4-(4-hydroxybenzyl)-1-methyl-4H-2,3,4,5,10b-pentaazabenz[e]azulene] | –
650 | Cc1nnc2n1-c1ccccc1C(c1ccc(Cl)cc1)=NN2Cc1cc(Cl)nc(Cl)c1 [Example 123, 6-(4-Chlorophenyl)-4-(2,6-dichloropyridin-4-ylmethyl)-1-methyl-4H-2,3,4,5,10b-pentaazabenz[e]azulene] | –
250 | Cc1nnc2n1-c1ccccc1C(c1ccc(Cl)cc1)=NN2Cc1cccc(C#N)c1 [Example 56, 6-(4-Chlorophenyl)-4-(3-cyanobenzyl)-1-methyl-4H-2,3,4,5,10b-pentaazabenz[e]azulene] | –
380 | C=C(Cl)CN1N=C(c2ccc(Cl)cc2)c2ccccc2-n2c(C)nnc21 [Example 112, 6-(4-Chlorophenyl)-4-(2-chloro-2-propenyl)-1l-methyl-4H-2,3,4,5,10b-pentaazabenz[e]azulene] | –
510 | C=C(C)CN1N=C(c2ccc(Cl)cc2)c2ccccc2-n2c(C)nnc21 [Example 111, 6-(4-Chlorophenyl)-1-methyl-4-(2-methyl-2-propenyl)-4H-2,3,4,5,10b-pentaazabenz[e]azulene] | –
270 | Cc1cc2c(s1)-n1c(C)nnc1N(Cc1ccncc1)N=C2c1ccccc1 [Example 144, 2,9-Dimethyl-4-phenyl-6-(pyridin-4-ylmethyl)-6H-5,6,7,8,9a-pentaazathien[2,3-e]azulene] | –
120 | COc1ccc(CN2N=C(c3ccc(Cl)cc3)c3ccccc3-n3c(C)nnc32)cc1 [Example 40, 6-(4-Chlorophenyl)-4-(4-methoxybenzyl)-1-methyl-4H-2,3,4,5,10b-pentaazabenz[e]azulene] | –
